Laboratory results: patent US10472356B2, “Bicyclic ketone sulfonamide compounds” (AMGEN INC., priority 2015, dated 2019)

Experiments:
human Nav1.7 [1] = target: T1, human Nav1.7 (Homo sapiens, UniProt Q15858); assay: Nav 1.7 In Vitro PatchXpress (PX) Assay; format: cell-based; settings: HEK 293 cells stably transfected with human Nav1.7; PatchXpress whole cell voltage clamp; partially inactivated state (holding potential yielding 20 to 50% inactivation); read-out: hNav1.7 PX IC50
T1 construct: expressed in transfected cells; host or cells: HEK293
Method: Nav 1.7 In Vitro PatchXpress (PX) Assay
HEK 293 cells stably transfected with human Nav1.7 were recorded in whole cell voltage clamp mode with the PatchXpress automated electrophysiology system (Molecular Devices, LLC, Sunnyvale, Calif.). Compound effects were measured on a partially inactivated state of the sodium channel. Cells were clamped to a holding potential yielding 20 to 50% inactivation. To elicit sodium current, channels were activated by pulsing to −10 mV for 20 msec. This voltage protocol was repeated at a rate of 0.1 Hz throughout the experiment. A single concentration of test compound was applied to cells for a duration of 3 minutes. Peak sodium current was measured at the end of the compound addition period to determine percent inhibition. Three to five cells were tested per concentration, and IC50 curves were fitted to percent inhibition as a function of concentration.

human Nav1.7 [2] = target: T1, human Nav1.7; assay: Nav 1.7 IWB In Vitro Assay (IonWorks Barracuda); format: cell-based; settings: HEK293 cells stably transfected with human Nav 1.7; IonWorks Barracuda population patch-clamp; cells clamped to −20 mV for 4 minutes with compound; 26th pulse; read-out: hNav1.7 IWB IC50
Method: Nav 1.7 IWB In Vitro Assay
HEK293 cells stably transfected with human Nav 1.7 were recorded in population patch-clamp mode with the IonWorks© Barracuda (IWB) automated electrophysiology system (Molecular Devices, LLC, Sunnyvale, Calif.). From a holding potential of −110 mV, sodium currents were elicited by a train of 26 depolarizations of 150 ms duration to −20 mV at a frequency of 5 Hz. Cells were then clamped to −20 mV for a period of 4 minutes in the presence of a single concentration of test compound. Following this compound incubation period, cells were clamped to −110 mV for three seconds to recover unbound channels and put through the same 26 pulse voltage protocol as above. Peak inward current during the 26th pulse to −20 mV in the presence of compound was divided by the peak inward current evoked by the 26th pulse to −20 mV in the absence of compound to determine percent inhibition. Concentration-response curves of percent inhibition as a function of concentration were generated to calculate IC50 values.

T1 sequence (Q15858 whole entry): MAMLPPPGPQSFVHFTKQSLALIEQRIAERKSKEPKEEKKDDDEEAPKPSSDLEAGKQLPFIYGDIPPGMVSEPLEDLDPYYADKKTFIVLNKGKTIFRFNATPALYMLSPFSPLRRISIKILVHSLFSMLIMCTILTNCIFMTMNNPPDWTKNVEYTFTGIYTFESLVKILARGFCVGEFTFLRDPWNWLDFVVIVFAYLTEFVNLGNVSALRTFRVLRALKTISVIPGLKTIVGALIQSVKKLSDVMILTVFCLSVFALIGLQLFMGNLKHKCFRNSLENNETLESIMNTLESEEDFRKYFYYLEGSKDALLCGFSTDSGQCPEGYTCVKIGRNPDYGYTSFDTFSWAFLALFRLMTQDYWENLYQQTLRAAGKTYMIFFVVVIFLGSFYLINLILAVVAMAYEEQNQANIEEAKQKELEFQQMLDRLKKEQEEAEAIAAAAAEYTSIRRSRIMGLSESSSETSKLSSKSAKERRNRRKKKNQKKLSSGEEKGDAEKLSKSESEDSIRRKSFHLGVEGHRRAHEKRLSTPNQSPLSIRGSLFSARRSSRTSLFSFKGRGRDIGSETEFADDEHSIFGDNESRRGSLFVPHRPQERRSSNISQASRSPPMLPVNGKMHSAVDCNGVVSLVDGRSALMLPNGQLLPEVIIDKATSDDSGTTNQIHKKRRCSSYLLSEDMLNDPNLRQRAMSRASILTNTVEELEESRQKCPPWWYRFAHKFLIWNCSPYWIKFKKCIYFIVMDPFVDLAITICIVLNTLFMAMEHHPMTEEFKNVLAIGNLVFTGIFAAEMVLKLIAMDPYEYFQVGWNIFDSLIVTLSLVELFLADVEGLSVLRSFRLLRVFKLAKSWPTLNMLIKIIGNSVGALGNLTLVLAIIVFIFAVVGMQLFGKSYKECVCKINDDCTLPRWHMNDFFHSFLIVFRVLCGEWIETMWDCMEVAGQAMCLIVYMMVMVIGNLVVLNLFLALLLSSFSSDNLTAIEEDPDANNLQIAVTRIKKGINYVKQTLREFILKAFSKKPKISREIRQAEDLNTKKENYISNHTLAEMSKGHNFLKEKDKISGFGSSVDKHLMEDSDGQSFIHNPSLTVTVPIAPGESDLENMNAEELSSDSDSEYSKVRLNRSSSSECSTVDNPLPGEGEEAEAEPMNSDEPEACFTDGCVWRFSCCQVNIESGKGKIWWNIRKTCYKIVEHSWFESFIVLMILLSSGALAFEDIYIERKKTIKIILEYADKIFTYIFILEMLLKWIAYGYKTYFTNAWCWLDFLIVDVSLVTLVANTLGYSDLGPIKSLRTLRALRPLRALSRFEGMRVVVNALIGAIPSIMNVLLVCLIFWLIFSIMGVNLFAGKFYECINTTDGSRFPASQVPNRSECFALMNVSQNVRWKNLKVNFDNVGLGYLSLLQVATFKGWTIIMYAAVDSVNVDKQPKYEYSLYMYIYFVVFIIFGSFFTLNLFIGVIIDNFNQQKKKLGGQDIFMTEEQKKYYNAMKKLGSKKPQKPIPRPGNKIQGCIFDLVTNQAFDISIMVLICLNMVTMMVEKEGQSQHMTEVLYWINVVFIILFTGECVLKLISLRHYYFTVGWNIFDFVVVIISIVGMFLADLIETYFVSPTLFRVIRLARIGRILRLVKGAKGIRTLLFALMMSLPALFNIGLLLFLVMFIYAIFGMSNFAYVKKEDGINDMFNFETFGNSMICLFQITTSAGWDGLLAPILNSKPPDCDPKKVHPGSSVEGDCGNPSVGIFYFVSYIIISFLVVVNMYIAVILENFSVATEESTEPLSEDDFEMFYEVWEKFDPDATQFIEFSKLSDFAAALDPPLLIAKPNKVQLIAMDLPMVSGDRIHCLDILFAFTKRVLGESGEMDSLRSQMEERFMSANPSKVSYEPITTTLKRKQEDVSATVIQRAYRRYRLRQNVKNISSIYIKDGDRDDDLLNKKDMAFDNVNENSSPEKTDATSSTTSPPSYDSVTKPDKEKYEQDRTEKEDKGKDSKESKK

SMILES	IC50 (human Nav1.7 [1]) [nM]	IC50 (human Nav1.7 [2]) [nM]
COc1cc(-c2cc(F)cc(F)c2)c(F)cc1-n1c2c(ccc1=O)CN(S(=O)(=O)Nc1ccon1)CC2 (racemic) [Example 25-(Rac), (Rac)-N-3-isoxazolyl-2-oxo-1-(2,3′,5′-trifluoro-5-methoxy-4-biphenylyl)-1,5,7,8-tetrahydro-1,6-naphthyridine-6(2H)-sulfonamide]	209	–
COc1cc(C(F)(F)F)ccc1-n1c2c(ccc1=O)CN(S(=O)(=O)Nc1ccon1)CC2 (racemic) [Example 26-(Rac), (Rac)-N-3-isoxazolyl-1-(2-methoxy-4-(trifluoromethyl)phenyl)-2-oxo-1,5,7,8-tetrahydro-1,6-naphthyridine-6(2H)-sulfonamide]	> 1000	–
COc1ccccc1-n1c2c(ccc1=O)CN(S(=O)(=O)Nc1ccon1)CC2 (racemic) [Example 27, (Rac)-N-3-isoxazolyl-1-(2-methoxyphenyl)-2-oxo-1,5,7,8-tetrahydro-1,6-naphthyridine-6(2H)-sulfonamide]	> 1000	–
COc1cc(Br)c(F)cc1-n1c2c(ccc1=O)CN(S(=O)(=O)Nc1ncccn1)CC2 (racemic) [Preparation 8a, 1-(4-bromo-5-fluoro-2-methoxyphenyl)-2-oxo-N-2-pyrimidinyl-1,5,7,8-tetrahydro-1,6-naphthyridine-6(2H)-sulfonamide]	–	4240
COc1cc(Br)c(Cl)cc1-n1c2c(ccc1=O)CN(S(=O)(=O)Nc1ccon1)CC2 (racemic) [Preparation 8c, 1-(4-bromo-5-chloro-2-methoxyphenyl)-N-3-isoxazolyl-2-oxo-1,5,7,8-tetrahydro-1,6-naphthyridine-6(2H)-sulfonamide]	–	2880
COc1cc(-c2cc(F)cc(Cl)c2)c(F)cc1-n1c2c(ccc1=O)CN(S(=O)(=O)Nc1ncns1)CC2 (single isomer, unassigned) [Example 5-M, M-1-(3′-chloro-2,5′-difluoro-5-methoxy-4-biphenylyl)-2-oxo-N-1,2,4-thiadiazol-5-yl-1,5,7,8-tetrahydro-1,6-naphthyridine-6(2H)-sulfonamide]	–	726
COc1cc(-c2cc(F)cc(Cl)c2)ccc1-n1c2c(ccc1=O)CN(S(=O)(=O)Nc1ccon1)CC2 (single isomer, unassigned) [Example 7-M, M-1-(3′-chloro-5′-fluoro-3-methoxy-4-biphenylyl)-N-3-isoxazolyl-2-oxo-1,5,7,8-tetrahydro-1,6-naphthyridine-6(2H)-sulfonamide]	–	1210
COc1cc(-c2cc(F)cc(F)c2)c(F)cc1-n1c2c(ccc1=O)CN(S(=O)(=O)Nc1cccc(F)n1)CC2 (single isomer, unassigned) [Example 14-M, M-N-(6-fluoro-2-pyridinyl)-2-oxo-1-(2,3′,5′-trifluoro-5-methoxy-4-biphenylyl)-1,5,7,8-tetrahydro-1,6-naphthyridine-6(2H)-sulfonamide]	–	452
COc1cc(-c2ccc(Cl)c(C)c2)c(F)cc1-n1c2c(ccc1=O)CN(S(=O)(=O)Nc1ccon1)CC2 (single isomer, unassigned) [Example 24-M, M-1-(4′-chloro-2-fluoro-5-methoxy-3′-methyl-4-biphenylyl)-N-3-isoxazolyl-2-oxo-1,5,7,8-tetrahydro-1,6-naphthyridine-6(2H)-sulfonamide]	–	462
COc1cc(-c2ccc(Cl)c(C)c2)c(F)cc1-n1c2c(ccc1=O)CN(S(=O)(=O)Nc1cccnn1)CC2 (single isomer, unassigned) [Example 33-M, M-1-(4′-chloro-2-fluoro-5-methoxy-3′-methyl-4-biphenylyl)-2-oxo-N-3-pyridazinyl-1,5,7,8-tetrahydro-1,6-naphthyridine-6(2H)-sulfonamide]	–	> 10000

More lines, now with the values ahead:

IC50 (human Nav1.7 [1]) [nM]	IC50 (human Nav1.7 [2]) [nM]	SMILES
255	–	COc1cc(-c2ccc(F)c(C)c2)c(F)cc1-n1c2c(ccc1=O)CN(S(=O)(=O)Nc1ccon1)CC2 (racemic) [Example 22-(Rac), (Rac)-1-(2,4′-difluoro-5-methoxy-3′-methyl-4-biphenylyl)-N-3-isoxazolyl-2-oxo-1,5,7,8-tetrahydro-1,6-naphthyridine-6(2H)-sulfonamide]
–	1120	COc1cc(Br)c(F)cc1-n1c2c(ccc1=O)CN(S(=O)(=O)Nc1cccnn1)CC2 (racemic) [Preparation 8b, 1-(4-bromo-5-fluoro-2-methoxyphenyl)-2-oxo-N-3-pyridazinyl-1,5,7,8-tetrahydro-1,6-naphthyridine-6(2H)-sulfonamide]
–	8300	COc1cc(-c2cc(F)cc(Cl)c2)c(F)cc1-n1c2c(ccc1=O)CN(S(=O)(=O)Nc1cc(C)ncn1)CC2 (single isomer, unassigned) [Example 4-M, M-1-(3′-chloro-2,5′-difluoro-5-methoxy-4-biphenylyl)-N-(6-methyl-4-pyrimidinyl)-2-oxo-1,5,7,8-tetrahydro-1,6-naphthyridine-6(2H)-sulfonamide]
–	8820	COc1cc(-c2cc(F)cc(Cl)c2)c(F)cc1-n1c2c(ccc1=O)CN(S(=O)(=O)Nc1ccnc(C)n1)CC2 (single isomer, unassigned) [Example 6-M, M-1-(3′-chloro-2,5′-difluoro-5-methoxy-4-biphenylyl)-N-(2-methyl-4-pyrimidinyl)-2-oxo-1,5,7,8-tetrahydro-1,6-naphthyridine-6(2H)-sulfonamide]
–	2950	COc1cc(-c2cc(F)cc(Cl)c2)ccc1-n1c2c(ccc1=O)CN(S(=O)(=O)Nc1cccnn1)CC2 (single isomer, unassigned) [Example 8-M, M-1-(3′-chloro-5′-fluoro-3-methoxy-4-biphenylyl)-2-oxo-N-3-pyridazinyl-1,5,7,8-tetrahydro-1,6-naphthyridine-6(2H)-sulfonamide]
–	720	COc1cc(-c2cccc(C(F)(F)F)c2)c(F)cc1-n1c2c(ccc1=O)CN(S(=O)(=O)Nc1ccon1)CC2 (single isomer, unassigned) [Example 16-M, M-1-(2-fluoro-5-methoxy-3′-(trifluoromethyl)-4-biphenylyl)-N-3-isoxazolyl-2-oxo-1,5,7,8-tetrahydro-1,6-naphthyridine-6(2H)-sulfonamide]
–	9720	COc1cc(C#CC2CCCC2)c(F)cc1-n1c2c(ccc1=O)CN(S(=O)(=O)Nc1ccon1)CC2 (single isomer, unassigned) [Example 34-M, M-1-(4-(cyclopentylethynyl)-5-fluoro-2-methoxyphenyl)-N-3-isoxazolyl-2-oxo-1,5,7,8-tetrahydro-1,6-naphthyridine-6(2H)-sulfonamide]
–	1480	COc1cc(-c2cc(OC)c(-n3c4c(ccc3=O)CN(S(=O)(=O)Nc3ccon3)CC4)cc2F)ccc1C (single isomer, unassigned) [Example 58-M, M-1-(2-fluoro-3′,5-dimethoxy-4′-methyl-4-biphenylyl)-N-3-isoxazolyl-2-oxo-1,5,7,8-tetrahydro-1,6-naphthyridine-6(2H)-sulfonamide]
–	856	COc1cc(CCC(F)(F)F)c(Cl)cc1-n1c2c(ccc1=O)CN(S(=O)(=O)Nc1cccnn1)CC2 (single isomer, unassigned) [Example 96-M, M-1-(5-chloro-2-methoxy-4-(3,3,3-trifluoropropyl)phenyl)-2-oxo-N-(pyridazin-3-yl)-1,2,7,8-tetrahydro-1,6-naphthyridine-6(5H)-sulfonamide]
–	> 25000	COc1cc(Br)c(Cl)cc1-n1c2c(ccc1=O)CN(S(=O)(=O)Nc1ccon1)CC2 (single isomer, unassigned) [Preparation 8c-M, M-1-(4-bromo-5-chloro-2-methoxyphenyl)-N-3-isoxazolyl-2-oxo-1,5,7,8-tetrahydro-1,6-naphthyridine-6(2H)-sulfonamide]
–	768	COc1cc(Br)c(Cl)cc1-n1c2c(ccc1=O)CN(S(=O)(=O)Nc1ccon1)CC2 (single isomer, unassigned) [Preparation 8c-P, P-1-(4-bromo-5-chloro-2-methoxyphenyl)-N-3-isoxazolyl-2-oxo-1,5,7,8-tetrahydro-1,6-naphthyridine-6(2H)-sulfonamide]
–	> 25000	COc1cc(Br)c(F)cc1-n1c2c(ccc1=O)CN(S(=O)(=O)Nc1ccncn1)CC2 (single isomer, unassigned) [Preparation 8f-M, M-1-(4-bromo-5-fluoro-2-methoxyphenyl)-2-oxo-N-(pyrimidin-4-yl)-1,2,7,8-tetrahydro-1,6-naphthyridine-6(5H)-sulfonamide]
–	193	COc1cc(Br)c(F)cc1-n1c2c(ccc1=O)CN(S(=O)(=O)Nc1ccncn1)CC2 (single isomer, unassigned) [Preparation 8f-P, P-1-(4-bromo-5-fluoro-2-methoxyphenyl)-2-oxo-N-(pyrimidin-4-yl)-1,2,7,8-tetrahydro-1,6-naphthyridine-6(5H)-sulfonamide]
